Results reported in article doi:10.1101/2025.01.28.635346v1 (bioRxiv, 2025).
Bridge positions count the residues as written; N and C are the ends. Side chains are listed from the residue outwards. Peptide text beside a SMILES is read from it. * marks the point of attachment. Butanoyl(4-(4-I-phenyl)) = O=C(CCCc1ccc(I)cc1)*; PEG2 = NCCOCCOCCC(=O)O

Key:
[1] = molecular target: integrin αvβ8 (Homo sapiens, UniProt P06756+P26012); assay: ELISA competition assay, integrin αvβ8 binding to LAP
[2] = molecular target: integrin αvβ1 (Homo sapiens, UniProt P05556+P06756); assay: ELISA competition assay, integrin αvβ1; assay type: binding
[3] = molecular target: integrin αvβ5 (Homo sapiens, UniProt P06756+P18084); assay: ELISA competition assay, integrin αvβ5; assay type: binding
[4] = molecular target: T1, ADRA1A (Homo sapiens, UniProt P35348); assay: Safetyscan47 GPCR Calcium Flux, Agonist; assay type: cell-based; settings: for Emax: read-out: Max Response
T1 sequence (P35348 1-466): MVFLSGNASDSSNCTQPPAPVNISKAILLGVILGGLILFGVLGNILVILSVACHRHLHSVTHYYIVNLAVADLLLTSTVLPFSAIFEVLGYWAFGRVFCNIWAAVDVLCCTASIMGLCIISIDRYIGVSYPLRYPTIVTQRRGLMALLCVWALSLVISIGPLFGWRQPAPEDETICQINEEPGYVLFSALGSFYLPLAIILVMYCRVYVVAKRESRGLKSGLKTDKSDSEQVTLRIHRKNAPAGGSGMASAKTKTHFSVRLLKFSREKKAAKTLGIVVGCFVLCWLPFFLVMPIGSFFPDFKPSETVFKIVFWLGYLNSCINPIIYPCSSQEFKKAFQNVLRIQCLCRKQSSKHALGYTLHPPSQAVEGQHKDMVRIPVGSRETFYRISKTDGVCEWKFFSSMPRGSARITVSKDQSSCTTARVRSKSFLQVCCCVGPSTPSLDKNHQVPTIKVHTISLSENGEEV

[5] = molecular target: T2, CCKAR (Homo sapiens, UniProt P32238); assay: Safetyscan47 GPCR Calcium Flux, Agonist; assay type: cell-based; settings: for Emax: read-out: Max Response
T2 sequence (P32238 1-428): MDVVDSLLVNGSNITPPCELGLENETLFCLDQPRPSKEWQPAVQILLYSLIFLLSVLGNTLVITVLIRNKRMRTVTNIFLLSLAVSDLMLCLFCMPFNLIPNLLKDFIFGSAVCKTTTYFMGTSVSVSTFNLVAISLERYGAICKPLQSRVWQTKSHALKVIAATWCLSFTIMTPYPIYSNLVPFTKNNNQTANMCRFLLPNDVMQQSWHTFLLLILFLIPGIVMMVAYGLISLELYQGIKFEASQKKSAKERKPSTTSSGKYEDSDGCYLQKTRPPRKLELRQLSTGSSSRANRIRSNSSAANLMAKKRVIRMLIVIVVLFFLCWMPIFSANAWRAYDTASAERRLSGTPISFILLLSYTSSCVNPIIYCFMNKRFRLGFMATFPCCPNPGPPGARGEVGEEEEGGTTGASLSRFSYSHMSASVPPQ

[6] = molecular target: AVPR1A (Homo sapiens, UniProt P37288); assay: Safetyscan47 GPCR Calcium Flux, Antagonist; assay type: cell-based; settings: for Emax: read-out: Max Response
[7] = molecular target: T2, CCKAR; assay: Safetyscan47 GPCR Calcium Flux, Antagonist; assay type: cell-based; settings: for Emax: read-out: Max Response
[8] = molecular target: HRH2 (Homo sapiens, UniProt P25021); assay: Safetyscan47 GPCR cAMP, Agonist; assay type: cell-based; settings: for Emax: read-out: Max Response
[9] = molecular target: CNR1 (Homo sapiens, UniProt P21554); assay: Safetyscan47 GPCR cAMP, Antagonist; assay type: cell-based; settings: for Emax: read-out: Max Response
[10] = molecular target: GABAA (Homo sapiens, UniProt P14867+P18507+P47870); assay: Safetyscan47 Ion Channel, Blocker; assay type: cell-based; settings: for Emax: read-out: Max Response
[11] = molecular target: T3, HTR3A (Homo sapiens, UniProt P46098); assay: Safetyscan47 Ion Channel, Opener; assay type: cell-based; settings: for Emax: read-out: Max Response
T3 sequence (P46098 24-478): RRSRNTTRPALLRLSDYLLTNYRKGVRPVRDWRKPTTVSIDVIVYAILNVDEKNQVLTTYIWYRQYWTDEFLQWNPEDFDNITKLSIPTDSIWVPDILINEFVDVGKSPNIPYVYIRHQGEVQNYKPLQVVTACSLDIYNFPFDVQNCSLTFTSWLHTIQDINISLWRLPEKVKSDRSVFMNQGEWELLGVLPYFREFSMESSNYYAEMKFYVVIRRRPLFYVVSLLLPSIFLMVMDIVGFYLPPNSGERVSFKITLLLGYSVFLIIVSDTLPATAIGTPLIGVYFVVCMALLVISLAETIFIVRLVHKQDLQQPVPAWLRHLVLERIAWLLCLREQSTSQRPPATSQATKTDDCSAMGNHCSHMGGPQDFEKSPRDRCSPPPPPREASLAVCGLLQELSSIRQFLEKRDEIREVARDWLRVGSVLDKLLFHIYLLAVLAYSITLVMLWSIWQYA

[12] = molecular target: KvLQT1/minK (Homo sapiens, UniProt P15382+P51787); assay: Safetyscan47 Ion Channel, Opener; assay type: cell-based; settings: for Emax: read-out: Max Response
[13] = molecular target: NET (Homo sapiens, UniProt P23975); assay: Safetyscan47 Transporter, Blocker; assay type: cell-based; settings: for Emax: read-out: Max Response

SMILES | IC50 [1] | IC50 [2] | IC50 [3] | EC50 [4] | Emax [4] | EC50 [5] | Emax [5] | IC50 [6] | Emax [6] | IC50 [7] | Emax [7] | EC50 [8] | Emax [8] | IC50 [9] | Emax [9] | IC50 [10] | Emax [10] | EC50 [11] | Emax [11] | EC50 [12] | also measured
CC[C@H](C)[C@H](NC(=O)[C@H](CC(C)C)NC(=O)[C@H](CC(=O)O)NC(=O)CNC(=O)[C@H](CCCNC(=N)N)NC(=O)[C@@H](NC(=O)[C@H](Cc1ccccc1)NC(=O)[C@H](Cc1ccc(O)cc1)NC(=O)[C@@H]1CCC(=O)NCC(=O)NCC(=O)N[C@@H](CCCNC(=N)N)C(=O)NCC(=O)N[C@@H](Cc2c[nH]cn2)C(=O)N[C@@H](C(C)C)C(=O)N2CCC[C@H]2C(=O)N1)C(C)C)C(=O)N[C@@H](CO)C(=O)N[C@@H](Cc1ccccc1)C(=O)N[C@@H](Cc1ccc(O)cc1)C(=O)N[C@@H](CCCCN)C(=O)O [lassotide 36] (GGRGHVPEYFVRGDLISFYK-OH; lactam N-8) | 0.015 µM | 0.084 µM | > 10 µM | > 45 µM | 2.01% | > 45 µM | 4.58% | > 45 µM | 13.3% | > 45 µM | 3.61% | > 45 µM | 0% | > 45 µM | 9.79% | > 45 µM | 0% | > 45 µM | 0% | > 45 µM | Emax [12]: 0%; IC50 [13]: > 45 µM; Emax [13]: 0.35%
CC[C@H](C)[C@H](NC(=O)[C@H](CC(C)C)NC(=O)[C@H](CC(=O)O)NC(=O)CNC(=O)[C@H](CCCNC(=N)N)NC(=O)[C@@H](NC(=O)[C@H](Cc1ccccc1)NC(=O)[C@H](Cc1ccc(O)cc1)NC(=O)[C@@H]1CCC(=O)NCC(=O)NCC(=O)N[C@@H](CCCNC(=N)N)C(=O)NCC(=O)N[C@@H](Cc2c[nH]cn2)C(=O)N[C@@H](C(C)C)C(=O)N2CCC[C@H]2C(=O)N1)C(C)C)C(=O)N[C@@H](CO)C(=O)N[C@@H](Cc1ccccc1)C(=O)N[C@@H](Cc1ccc(O)cc1)C(=O)N[C@@H](CCCCNC(=O)CCOCCOCCNC(=O)CCCc1ccc(I)cc1)C(=O)O [lassotide 47] (GGRGHVPEYFVRGDLISFYK([PEG2-Butanoyl(4-(4-I-phenyl))])-OH; lactam N-8) | 0.0079 µM | 1.23 µM | > 10 µM | > 45 µM | 0.52% | > 45 µM | 0% | > 45 µM | 25.8% | > 45 µM | 3.35% | > 45 µM | 0% | > 45 µM | 0% | > 45 µM | 0% | > 45 µM | 0.79% | > 45 µM | Emax [12]: 0%; IC50 [13]: > 45 µM; Emax [13]: 0%
